From ChEMBL document CHEMBL1671847, “Hybrid dual aromatase-steroid sulfatase inhibitors with exquisite picomolar inhibitory activity” (ACS Med Chem Lett, 2011) come the findings set out here.

Structures are written as SMILES.

The assay concerns the target T1, Aromatase (Homo sapiens, UniProt P11511).
T1 sequence (P11511 whole entry): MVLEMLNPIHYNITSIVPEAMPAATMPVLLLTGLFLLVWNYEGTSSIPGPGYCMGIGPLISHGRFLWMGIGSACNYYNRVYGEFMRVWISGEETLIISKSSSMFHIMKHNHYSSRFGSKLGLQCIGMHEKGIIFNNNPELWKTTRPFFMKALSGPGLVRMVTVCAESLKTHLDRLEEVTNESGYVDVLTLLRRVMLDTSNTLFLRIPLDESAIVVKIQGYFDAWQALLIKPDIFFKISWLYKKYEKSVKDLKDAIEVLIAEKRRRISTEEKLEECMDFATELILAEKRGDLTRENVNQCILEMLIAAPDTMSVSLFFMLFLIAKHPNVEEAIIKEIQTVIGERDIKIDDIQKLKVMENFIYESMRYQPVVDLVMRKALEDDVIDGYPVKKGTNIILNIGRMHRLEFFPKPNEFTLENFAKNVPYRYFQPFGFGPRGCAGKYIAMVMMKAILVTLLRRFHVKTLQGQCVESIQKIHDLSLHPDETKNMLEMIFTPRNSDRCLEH
Briefly: Inhibition of aromatase in human JEG-3 cells using [1beta-3H]androstenedione after 1 hr by scintillation spectrometry. It counts as cell-based.

A word on the IC50: it is the midpoint of a concentration-inhibition curve. For `N#Cc1ccc(N(Cc2ccc(OS(N)(=O)=O)cc2)n2cnnc2)cc1-c1ccccc1`, inhibition was half-maximal at 0.21 nM (IC50). This lies in the sub-nanomolar range.
